Data on 21 compounds can be found in US20250228835A1, “PYRIDINYLOXYPYRIDINES AND RELATED COMPOUNDS AND THEIR USE IN TREATING MEDICAL CONDITIONS” (Rectify Pharmaceuticals, Inc., priority 2024, published 2025).

In general, EC50 refers to the concentration giving half of the maximal effect.

One test addresses T1, ABCC6 WT (Homo sapiens, UniProt O95255).
T1 construct: expressed in transfected cells; host or cells: HEK-293 (transient, Lipofectamine 2000)
Description: ABCC6 WT assay: HiBit protein expression. As to conditions: HEK-293 cells transiently expressing HiBit-tagged ABCC6 WT; 24 h treatment; top concentration 20 μM; read-out: ABCC6 WT EC50, Emax. It counts as cell-based. The source says: To assess activity against ABCC6, compounds were screened in an assay measuring protein expression, using cells transfected with cDNA encoding HiBit-tagged ABCC6 wild-type.
Described here is an assay for measuring the expression of the wild type of human ABCC6 (henceforth referred to as ABCC6 WT) and the use of this assay to measure the efficacy of compounds to increase the expression of ABCC6 WT. The assay was designed to characterize the efficacy and potency of compounds to increase the expression of ABCC6 WT by calculating an Emax and EC50 value. HEK-293 cells transiently expressing ABCC6 WT (HEK-293/ACC6 WT) were used for this assay and were cultured at 37° C. (5% CO2, humidified) in Dulbecco's Modified Eagle Medium (DMEM, Gibco product #11965-092) supplemented with 10% fetal bovine serum. For the assay, HEK-293 cells were transfected with […]/10 cm plate of cDNA encoding HiBit-tagged ABCC6 wild-type using Lipofectamine 2000 (Thermo Fisher, product #11668019). Twenty-four hours after transfection, the HEK-293/ACC6 WT cells were seeded in white/opaque 384-well plates (PerkinElmer, cat. No. 6007688) at 10,000 cells/well in 20 μl growth medium and allowed to settle for 4 hours at 37° C. (5% CO2, humidified). Compound serial dilutions are prepared in growth medium as ten times (10×) the final concentration and using a dilution factor of 2. After the four-hour incubation period, 2.2 μL of the 10× dilutions are transferred to the assay plate.
Dose response curves include ten doses with the top final concentration at 20 μM in 0.15% DMSO. Liquid handling is performed with an Integra mini96-tip head (INTEGRA). After addition of compound treatment, cells are incubated for 24 hours at 37° C. (5% CO2, humidified). After the 24-hour treatment, plates are allowed to equilibrate for 15 minutes at room temperature. Using Integra mini-96, 20 μl of HiBit lytic assay reagent (Promega, product #N3040), which is prepared according to manufacturer's instructions, is added to each well. The plates are rotated at room temperature for 10 minutes and luminescent signal is acquired using an EnVision Multimode Plate Reader (PerkinElmer).
Results are presented below in Table 4 for ABCC6 WT.
In general terms: The HiBiT peptide binds its large partner to form an active luciferase.

For another test, the target named is T2, ABCA4 P1380L (Homo sapiens, UniProt P78363, P1380L).
T2 construct: expressed in transfected cells
T2 sequence (P78363 whole entry P1380L): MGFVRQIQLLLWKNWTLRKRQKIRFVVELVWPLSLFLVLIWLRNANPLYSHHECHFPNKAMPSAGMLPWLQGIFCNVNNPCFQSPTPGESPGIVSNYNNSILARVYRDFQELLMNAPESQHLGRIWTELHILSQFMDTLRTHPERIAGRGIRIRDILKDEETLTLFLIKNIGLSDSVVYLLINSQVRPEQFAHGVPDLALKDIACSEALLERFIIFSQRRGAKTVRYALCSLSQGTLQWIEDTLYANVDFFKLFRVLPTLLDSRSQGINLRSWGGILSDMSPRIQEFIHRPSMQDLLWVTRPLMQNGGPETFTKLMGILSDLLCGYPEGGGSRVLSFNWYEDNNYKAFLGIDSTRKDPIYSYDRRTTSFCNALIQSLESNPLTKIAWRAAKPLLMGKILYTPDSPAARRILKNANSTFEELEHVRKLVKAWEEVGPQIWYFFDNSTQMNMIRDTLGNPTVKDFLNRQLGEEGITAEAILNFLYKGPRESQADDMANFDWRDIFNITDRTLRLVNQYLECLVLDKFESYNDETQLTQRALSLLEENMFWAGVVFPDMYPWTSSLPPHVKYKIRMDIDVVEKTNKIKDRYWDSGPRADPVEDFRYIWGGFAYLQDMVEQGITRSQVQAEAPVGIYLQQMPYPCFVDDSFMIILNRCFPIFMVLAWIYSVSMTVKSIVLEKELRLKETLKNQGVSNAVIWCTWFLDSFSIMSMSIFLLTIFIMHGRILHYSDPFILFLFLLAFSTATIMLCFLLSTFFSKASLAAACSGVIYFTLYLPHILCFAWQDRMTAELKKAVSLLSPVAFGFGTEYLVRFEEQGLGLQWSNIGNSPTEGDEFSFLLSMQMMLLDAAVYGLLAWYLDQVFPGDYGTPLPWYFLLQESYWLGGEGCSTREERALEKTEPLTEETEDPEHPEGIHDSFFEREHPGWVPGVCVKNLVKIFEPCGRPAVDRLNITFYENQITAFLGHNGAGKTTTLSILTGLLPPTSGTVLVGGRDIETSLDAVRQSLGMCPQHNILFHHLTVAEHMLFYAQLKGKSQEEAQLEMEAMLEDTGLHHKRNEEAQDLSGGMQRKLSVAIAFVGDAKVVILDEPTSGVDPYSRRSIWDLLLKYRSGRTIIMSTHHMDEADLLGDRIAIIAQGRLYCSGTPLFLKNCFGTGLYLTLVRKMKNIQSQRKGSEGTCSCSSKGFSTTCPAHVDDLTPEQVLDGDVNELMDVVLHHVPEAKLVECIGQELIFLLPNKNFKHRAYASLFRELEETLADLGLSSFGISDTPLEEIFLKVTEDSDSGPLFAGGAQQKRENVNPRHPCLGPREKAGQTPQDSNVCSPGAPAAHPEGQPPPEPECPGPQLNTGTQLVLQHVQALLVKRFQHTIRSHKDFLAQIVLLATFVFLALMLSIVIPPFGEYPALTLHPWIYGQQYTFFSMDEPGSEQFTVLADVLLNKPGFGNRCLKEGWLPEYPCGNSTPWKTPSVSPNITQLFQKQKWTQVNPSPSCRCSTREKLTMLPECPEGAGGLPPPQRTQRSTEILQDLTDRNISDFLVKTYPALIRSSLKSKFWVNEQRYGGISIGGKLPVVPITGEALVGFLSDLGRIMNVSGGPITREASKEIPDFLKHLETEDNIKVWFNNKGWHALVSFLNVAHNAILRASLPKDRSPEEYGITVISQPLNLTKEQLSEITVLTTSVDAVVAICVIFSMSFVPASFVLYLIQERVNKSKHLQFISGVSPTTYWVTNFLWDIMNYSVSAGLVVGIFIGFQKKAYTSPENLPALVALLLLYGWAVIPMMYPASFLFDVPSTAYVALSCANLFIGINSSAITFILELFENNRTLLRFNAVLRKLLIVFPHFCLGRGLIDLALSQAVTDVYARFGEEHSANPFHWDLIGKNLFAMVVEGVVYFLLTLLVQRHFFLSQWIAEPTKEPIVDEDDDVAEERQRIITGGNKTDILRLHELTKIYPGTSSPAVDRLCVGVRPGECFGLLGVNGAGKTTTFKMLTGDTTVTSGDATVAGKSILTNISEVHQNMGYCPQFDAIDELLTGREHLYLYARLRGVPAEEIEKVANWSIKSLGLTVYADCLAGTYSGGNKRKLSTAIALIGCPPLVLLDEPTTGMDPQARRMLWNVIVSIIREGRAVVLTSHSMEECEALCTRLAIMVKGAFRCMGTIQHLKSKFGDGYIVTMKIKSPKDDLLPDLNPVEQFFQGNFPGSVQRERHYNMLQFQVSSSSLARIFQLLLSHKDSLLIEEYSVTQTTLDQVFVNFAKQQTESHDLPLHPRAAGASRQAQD
The test is described as follows: A4 correction dose-response assay: ABCA4 P1380L HiBit protein expression. It counts as cell-based. Particulars: HEK-293 cells stably expressing HiBit-tagged ABCA4 P1380L; 24 h treatment; top concentration 30 μM; read-out: ABCA4 P1380L EC50, Emax. How it is done: Exemplary compounds were evaluated in an A4 correction dose-response assay.
To assess activity against ABCA4 P1380L, the compounds were screened in an assay measuring protein expression, using cells transfected with cDNA encoding HiBit-tagged ABCA4 P1380L. Here we describe an assay for measuring the expression of the P1380L variant of human ABCA4 (henceforth referred to as ABCA4 P1380L) and the use of this assay to measure the efficacy of compounds to increase the expression of ABCA4 P1380L. The assay was designed to characterize the efficacy and potency of compounds to increase the expression of ABCA4 P1380L by calculating an Emax and EC50 value. […] (5% CO2, humidified). […] After the four-hour incubation period, 60 nL of DMSO solutions are transferred to the assay plate.
Dose response curves include eleven doses with the top final concentration at 30 μM in 0.3% DMSO. Liquid handling is performed with ECHO 550 Acoustic Liquid Handler (Labcyte). After addition of compound treatment, cells are incubated for 24 hours at 37° C. (5% CO2, humidified). After the 24-hour treatment, plates are allowed to equilibrate to room temperature for 10 minutes. Using Dragonfly Automated Liquid Handler (TTP LabTech), 20 μl of HiBit lytic assay reagent (Promega, product #N3040), which is prepared according to manufacturer's instructions, is added to each well. The plates are rotated at room temperature for 2 minutes and incubated for 1 hour at 25° C. before luminescent signal is acquired using an EnVision Multimode Plate Reader (PerkinElmer).

Each structure is given as a SMILES string. Bounds are passed on as bounds.

T1 sequence (O95255 whole entry): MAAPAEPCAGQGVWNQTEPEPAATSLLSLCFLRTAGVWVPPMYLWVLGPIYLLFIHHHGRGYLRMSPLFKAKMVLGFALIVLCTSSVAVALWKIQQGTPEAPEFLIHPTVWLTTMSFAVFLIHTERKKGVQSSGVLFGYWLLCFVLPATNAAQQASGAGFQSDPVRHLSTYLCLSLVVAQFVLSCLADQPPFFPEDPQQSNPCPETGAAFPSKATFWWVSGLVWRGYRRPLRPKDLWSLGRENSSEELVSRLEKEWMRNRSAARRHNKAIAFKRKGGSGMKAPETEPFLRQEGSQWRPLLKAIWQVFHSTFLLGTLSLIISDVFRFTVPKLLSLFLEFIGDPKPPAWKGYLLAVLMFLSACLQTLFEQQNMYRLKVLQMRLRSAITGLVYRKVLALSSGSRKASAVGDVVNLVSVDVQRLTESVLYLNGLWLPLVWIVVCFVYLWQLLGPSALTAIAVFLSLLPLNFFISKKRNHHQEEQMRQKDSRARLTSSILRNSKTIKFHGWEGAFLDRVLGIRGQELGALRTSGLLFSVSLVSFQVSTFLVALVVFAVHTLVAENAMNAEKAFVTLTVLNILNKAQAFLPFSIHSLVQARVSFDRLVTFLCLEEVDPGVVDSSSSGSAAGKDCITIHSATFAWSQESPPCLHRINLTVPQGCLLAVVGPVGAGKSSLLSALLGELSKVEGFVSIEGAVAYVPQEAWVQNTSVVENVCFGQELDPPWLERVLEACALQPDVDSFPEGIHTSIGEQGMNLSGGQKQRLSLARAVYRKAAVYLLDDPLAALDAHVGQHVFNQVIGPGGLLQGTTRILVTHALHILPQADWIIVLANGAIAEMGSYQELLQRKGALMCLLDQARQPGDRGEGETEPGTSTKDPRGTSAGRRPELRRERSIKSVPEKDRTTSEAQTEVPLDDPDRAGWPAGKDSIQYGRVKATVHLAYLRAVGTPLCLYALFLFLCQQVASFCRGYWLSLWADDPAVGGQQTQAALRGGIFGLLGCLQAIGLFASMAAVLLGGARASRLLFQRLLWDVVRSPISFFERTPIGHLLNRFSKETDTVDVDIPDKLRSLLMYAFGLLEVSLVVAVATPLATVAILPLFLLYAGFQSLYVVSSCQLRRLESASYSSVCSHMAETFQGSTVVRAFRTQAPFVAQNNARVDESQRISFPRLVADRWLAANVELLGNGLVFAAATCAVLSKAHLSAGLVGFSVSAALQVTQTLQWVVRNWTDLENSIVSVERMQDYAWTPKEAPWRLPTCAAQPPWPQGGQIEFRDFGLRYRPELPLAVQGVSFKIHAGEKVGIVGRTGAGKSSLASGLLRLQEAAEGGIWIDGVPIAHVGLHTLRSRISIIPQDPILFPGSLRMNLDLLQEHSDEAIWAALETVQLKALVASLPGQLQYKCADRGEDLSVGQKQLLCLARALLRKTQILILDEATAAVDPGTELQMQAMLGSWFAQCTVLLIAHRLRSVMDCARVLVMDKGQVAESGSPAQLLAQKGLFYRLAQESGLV

As to `Cc1cc(C(F)(F)F)nc(C2CC2)c1Oc1nc(-c2cncc(C#N)c2)ccc1S(=O)(=O)N1CCOCC1` [Compound I-290], the concentration for a half-maximal effect (EC50) at ABCC6 WT was no less than 25 µM; at ABCA4 P1380L it was greater than 25 µM.
With `Cc1cc(C)c(Oc2nc(-c3cncc(Cl)c3)ccc2S(N)(=O)=O)c(C)c1` [Compound I-100], the EC50 at ABCC6 WT was less than 1 µM; at ABCA4 P1380L, 10 to 25 µM.
In the same order, the values of `Cc1cc(C(F)(F)F)nc(C2CC2)c1Oc1nc(-c2cncc(Cl)c2)ccc1NS(C)(=O)=O` [Compound I-158] are less than 1 µM and less than 1 µM.
For `Cc1nc(N2CC(C#N)C2)nc(C)c1Oc1nc(-c2cncc(C#N)c2)ccc1NS(C)(=O)=O` [Compound I-159], the concentration giving a half-maximal response (EC50) at ABCC6 WT is less than 1 µM; at ABCA4 P1380L, less than 25 µM.
In the same order, the values of `Cc1cc(C)c(Oc2nc(-c3cncc(C#N)c3)ccc2NS(=O)(=O)c2cccnc2)c(C2CC2)n1` [Compound I-147] are less than 1 µM and less than 1 µM.
Regarding `Cc1cc(C)c(Oc2nc(-c3cncc(Cl)c3)ncc2NS(C)(=O)=O)c(C)c1` [Compound I-9], the half-maximal effective concentration (EC50) was less than 1 µM on ABCC6 WT and greater than 25 µM at ABCA4 P1380L.
For the compound `Cc1cc(C(F)(F)F)nc(C2CC2)c1Oc1nc(-c2cncc(C#N)c2)ccc1S(=N)(=O)c1cccnn1` (stereo not drawn) [Compound I-296], the EC50 at ABCC6 WT was 1 to 10 µM; on ABCA4 P1380L, less than 1 µM.
In the same order, the values of `Cc1nc(C2CC2)nc(C2CC2)c1Oc1nc(-c2cncc(C#N)c2)ccc1NS(C)(=O)=O` [Compound I-150] are less than 1 µM and less than 1 µM.
`CNS(=O)(=O)c1ccc(-c2cncc(C#N)c2)nc1Oc1nc(C2CC2)sc1C` [Compound I-308]: the figures for the concentration for a half-maximal effect (EC50) at ABCC6 WT and on ABCA4 P1380L were 1 to 10 µM and greater than 25 µM, respectively.
`Cc1cc(C)c(Oc2nc(-c3cnc(C#N)c(Cl)c3)ccc2NS(C)(=O)=O)c(C)n1` [Compound I-8]: the concentration for a half-maximal effect (EC50) on ABCC6 WT and on ABCA4 P1380L was less than 1 µM each time.
For the compound `Cc1cc(C(F)(F)F)nc(C2CC2)c1Oc1nc(-c2cncc(Cl)c2)ccc1N(C)S(C)(=O)=O` [Compound I-153], the EC50 at ABCC6 WT was 1 to 10 µM; at ABCA4 P1380L, greater than 25 µM.
In the same order, the values of `Cc1nc(C)c(Oc2nc(-c3cncc(C#N)c3)ccc2N(C)S(C)(=O)=O)c(C2CC2)n1` [Compound I-157] are no less than 25 µM and greater than 25 µM.
In the same order, the values of `Cc1cc(C(F)(F)F)nc(C2CC2)c1Oc1nc(-c2cncc(C#N)c2)ccc1N(C)S(=O)(=O)C1CC1` [Compound I-139] are less than 1 µM and greater than 25 µM.
In the same order, the values of `Cc1cc(C2CC2)nc(C2CC2)c1Oc1nc(-c2cncc(C#N)c2)ccc1N(C)S(C)(=O)=O` [Compound I-146] are no less than 25 µM and 1 to 10 µM.
With `Cc1nc(C2CC2)cc(C2CC2)c1Oc1nc(-c2cncc(C#N)c2)ccc1NS(C)(=O)=O` [Compound I-162], the EC50 at ABCC6 WT and at ABCA4 P1380L was less than 1 µM each time.
For `Cc1cc(C)c(Oc2nc(-c3c[nH]c(=O)c(C#N)c3)ccc2NS(C)(=O)=O)c(C)n1` [Compound I-307], the EC50 on ABCC6 WT is 1 to 10 µM; at ABCA4 P1380L it was greater than 25 µM.
For the compound `Cc1cc(C)c(Oc2nc(-c3cncc(Cl)c3)ccc2S(C)(=N)=O)c(C)c1` (stereo not drawn) [Compound I-103], the concentration giving a half-maximal response (EC50) was less than 1 µM on ABCC6 WT and 1 to 10 µM at ABCA4 P1380L.
In the same order, the values of `Cc1nc(C(F)(F)F)nc(C2CC2)c1Oc1nc(-c2cncc(C#N)c2)ccc1NS(C)(=O)=O` [Compound I-145] are less than 1 µM and less than 1 µM.
In the same order, the values of `Cc1cc(C(F)(F)F)nc(C2CC2)c1Oc1nc(-c2cncc(C#N)c2)ccc1S(=O)(=O)Nc1cccnc1` [Compound I-294] are less than 1 µM and less than 25 µM.
In the same order, the values of `CCS(=O)(=O)N(C)c1ccc(-c2cncc(C#N)c2)nc1Oc1c(C)cc(C(F)(F)F)nc1C1CC1` [Compound I-148] are less than 1 µM and less than 1 µM.
For the compound `Cc1cc(C(F)(F)F)nc(C2CC2)c1Oc1nc(-c2cccc(C#N)c2)ccc1S(=N)(=O)C1CC1` (stereo not drawn) [Compound I-295], the EC50 is less than 1 µM at ABCC6 WT and less than 25 µM on ABCA4 P1380L.
